Laboratory results as given in ChEMBL document CHEMBL2086331, “Novel triazolopyridylbenzamides as potent and selective p38α inhibitors” (Bioorg Med Chem Lett, 2012).

Test system: Blood
Assay: Inhibition of LPS-induced TNFalpha production in human whole blood
Format: functional, tissue-based

Cc1c(F)cc(C(=O)NC2CC2)cc1-c1c(F)cn2c(C(C)C)nnc2c1F
IC50: 467 nM

Cc1c(F)cc(C(=O)NC2CC2)cc1-c1ccn2c(C3(C)CC3)nnc2c1
IC50: 117 nM

Cc1ccc(C(=O)NC2CC2)cc1-c1ccn2c(-c3ccncc3Cl)nnc2c1
IC50: 305 nM

Cc1ccc(C(=O)NC2CC2)cc1-c1c(F)cn2c(C(C)(C)C)nnc2c1F
IC50: 516 nM

Cc1c(F)cc(C(=O)NC2CC2)cc1-c1ccn2c(C(C)(C)O)nnc2c1
IC50: 105 nM

Cc1c(F)cc(C(=O)NC2CC2)cc1-c1ccn2c(C3CCC3)nnc2c1
IC50: 550 nM

COC(C)c1nnc2cc(-c3cc(C(=O)NC4CC4)cc(F)c3C)ccn12 (configuration not stated)
IC50: 257 nM

Cc1c(F)cc(C(=O)NC2CC2)cc1-c1ccn2c(C(C)(C)NS(C)(=O)=O)nnc2c1
IC50: 1110 nM

Cc1c(F)cc(C(=O)NC2CC2)cc1-c1ccn2c(-c3ccncc3Cl)nnc2c1
IC50: 84 nM

Cc1c(F)cc(C(=O)NC2CC2)cc1-c1ccn2c(C(C)(C)N(C)C)nnc2c1
IC50: 84 nM

Cc1c(F)cc(C(=O)NC2CC2)cc1-c1ccn2c(C3CCOCC3)nnc2c1
IC50: 405 nM

COC(C)(C)c1nnc2cc(-c3cc(C(=O)NC4CC4)cc(F)c3C)ccn12
IC50: 278 nM

Cc1c(F)cc(C(=O)NC2CC2)cc1-c1ccn2c(C(C)(C)N)nnc2c1
IC50: 177 nM

Cc1ccc(C(=O)NC2CC2)cc1-c1ccn2c(C3(C)CC3)nnc2c1
IC50: 232 nM

COC(C)c1nnc2cc(-c3cc(C(=O)NC4CC4)ccc3C)ccn12 (configuration not stated)
IC50: 1060 nM

Cc1ccc(C(=O)NC2CC2)cc1-c1ccn2c(C3CCC3)nnc2c1
IC50: 670 nM

Cc1c(F)cc(C(=O)NC2CC2)cc1-c1ccn2c(-c3ccccc3Cl)nnc2c1
IC50: 7.2 nM
